Results on 1 compound are retold here after patent EP0999856B1, “RADIOPHARMACEUTICALS FOR IMAGING INFECTION AND INFLAMMATION” (Bristol-Myers Squibb Pharma Company, priority 1996, dated 1998).

This test deals with PMN LTB4 receptor (Homo sapiens, UniProt Q15722). The experiment in a line: LTB4 Human Neutrophil (PMN) Binding Assay.
Chain of PMN LTB4 receptor (Q15722 whole entry): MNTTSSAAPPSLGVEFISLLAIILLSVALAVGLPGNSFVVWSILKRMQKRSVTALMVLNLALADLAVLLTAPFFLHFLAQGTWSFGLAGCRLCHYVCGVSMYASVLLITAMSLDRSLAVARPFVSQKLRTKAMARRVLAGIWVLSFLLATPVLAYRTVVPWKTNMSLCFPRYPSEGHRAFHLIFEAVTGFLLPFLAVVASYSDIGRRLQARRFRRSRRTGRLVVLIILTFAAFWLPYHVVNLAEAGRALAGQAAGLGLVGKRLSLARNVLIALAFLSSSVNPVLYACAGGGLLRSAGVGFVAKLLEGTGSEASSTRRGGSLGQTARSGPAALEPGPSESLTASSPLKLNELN

Experimental: Heparinized blood was placed on a ficol gradient followed by its sedimentation with dextran. […] The PMN solution was adjusted to achieve a concentration of 8 X 10^6 PMN/ml. […] Very briefly, the assay was performed as follows; [3H]LTB4 (1 nM) and test agent were placed into a 96 well microplate with filters (0.65 µm pore size). PMN solution (8 x 10^6/ml) was added and the microplate incubated for 10 min at 4° C. The microplate was then placed on Millipore filtration system; the wells washed with cold saline (3 x) and dried. The filters were removed from the microplate; placed into scintillation fluid and the concentration of [3H]LTB4 determined.

On to `CCc1cc(-c2ccc(F)cc2)c(O)cc1OCCCCC(C)(C)CNC(=O)c1ccc(NN=Cc2ccccc2)nc1` [IIa], for which the affinity corresponds to a Ki of 8 nM.

The Ki is a dissociation constant, usually derived from enzyme kinetics or from competition with a known ligand.
